System: HBsAg
Experiment: HBsAg assay
Type: cell-based, hepatitis B virus
Conditions: Hepatitis B virus, HepG2.2.15, 144 h, read-out: sAg EC50, μM, HepG2.2.15 cells, day 6
Summary of the method: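 HepG2.2.15 cells were treated with serially diluted compounds (0.5% DMSO), with medium and compound renewed after 2-3 days. Secreted HBsAg measured at day 6 by chemiluminescence immunoassay; EC50 from dose-response curves. Viability assessed in parallel by CellTiter-Glo.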

SMILES	EC50
COCCCOc1cc2c(cc1Cl)-c1cc(=O)c(-c3ncccc3C)cn1[C@H](C(C)C)CO2 [Example 137, (R)-2-Chloro-7-isopropyl-3-(3-methoxypropoxy)-10-(3-methylpyridin-2-yl)-6,7-dihydro-11H-benzo[f]pyrido[1,2-d][1,4]oxazepin-11-one]	10 µM
CCOC(=O)c1cn2c(cc1=O)-c1nc(OC)ccc1[C@H]2C(C)C [Example 173, (R)-ethyl-5-isopropyl-2-methoxy-9-oxo-5,9-dihydropyrido[2,3-a]indolizine-8-carboxylate]	8.6 µM
CC(C)COc1cc2c(nc1Cl)-c1cc(=O)c(C(=O)O)cn1[C@H](C(C)C)CO2 [Example 79, (R)-2-Chloro-3-isobutoxy-7-isopropyl-11-oxo-6,7-dihydro-11H-dipyrido[1,2-d:2′,3′-f][1,4]oxazepine-10-carboxylic acid]	0.79 µM
COCCCOc1cc2c(cc1OC)-c1cc(=NOC)c(C(=O)OC)cn1C(C(C)C)C2 (stereo not drawn) [Example 148, Methyl 6-isopropyl-10-methoxy-2-(methoxyimino)-9-(3-methoxypropoxy)-6,7-dihydro-2H-pyrido[2,1-a]isoquinoline-3-carboxylate]	13 µM
CCOP(=O)(O)c1cn2c(cc1=O)-c1cc(Cl)c(OCCCOC)cc1CC2C(C)(C)C (stereo not drawn) [Example 106, Ethyl hydrogen (6-(tert-butyl)-10-chloro-9-(3-methoxypropoxy)-2-oxo-6,7-dihydro-2H-pyrido[2,1-a]isoquinolin-3-yl)phosphonate]	7.2 µM
COCc1nc2c(s1)CC(C(C)C)n1cc(C(=O)O)c(=O)cc1-2 (stereo not drawn) [Example 88, 5-Isopropyl-2-(methoxymethyl)-9-oxo-4,9-dihydro-5H-thiazolo[4,5-a]quinolizine-8-carboxylic acid]	3.1 µM
COCCCOc1cc2c(cc1Cl)-c1cc3noc(=O)c-3cn1C(C(C)(C)C)C2 (stereo not drawn) [Example 146, 6-(Tert-butyl)-2-chloro-3-(3-methoxypropoxy)-5,6-dihydro-9H-isoxazolo[3′,4′:4,5]pyrido[2,1-a]isoquinolin-9-one]	0.031 µM
COc1cc2c(cc1Cl)-c1cc(=O)c(C(=O)O)cn1[C@H](C(C)C)CO2 (single isomer, unassigned) [Example 3]	0.032 µM
COCCCOc1cc2c(nc1C1CC1)-c1cc(=O)c(C(=O)O)cn1[C@H](C(C)(C)C)CO2 [Example 67, (R)-7-(Tert-butyl)-2-cyclopropyl-3-(3-methoxypropoxy)-11-oxo-6,7-dihydro-11H-dipyrido[1,2-d:2′,3′-f][1,4]oxazepine-10-carboxylic acid]	0.0009 µM
CCOC(=O)c1cn2c(cc1=O)-c1cc(Cl)c(O)cc1OCC2C(C)C (stereo not drawn) [Example 32, Ethyl 2-chloro-3-hydroxy-7-isopropyl-11-oxo-6,7-dihydro-11H-benzo[f]pyrido[1,2-d][1,4]oxazepine-10-carboxylate]	22 µM
COCCCOc1cc2c(nc1Cl)-c1cc(=O)c(C(=O)O)cn1C1(CO2)CC(C)C1 (stereo not drawn) [Example 73, 2′-Chloro-3′-(3-methoxypropoxy)-3-methyl-11′-oxo-6′H,11′H-spiro[cyclobutane-1,7′-dipyrido[1,2-d:2′,3′-f][1,4]oxazepine]-10′-carboxylic acid]	0.26 µM
COCCCOc1cc2c(cc1Cl)-c1cc(=O)c(C(=O)O)cn1[C@H](CCO)CO2 [Example 43, (R)-2-Chloro-7-(2-hydroxyethyl)-3-(3-methoxypropoxy)-11-oxo-6,7-dihydro-11H-benzo[f]pyrido[1,2-d][1,4]oxazepine-10-carboxylic acid]	0.35 µM

— patent US11013726B2 (Arbutus Biopharma Corporation, priority 2016, dated 2021)
